Key:
Assay type in all cases: in vivo
[1] = system: pigweed (Amaranthus retroflexus); assay: Test A preemergence; conditions: Amaranthus retroflexus, pre-emergence, 240 h, 0 to 100 scale where 0 is no effect and 100 is complete control, read-out: Pigweed plant response rating; for pest or weed control at 31 g/ha: 31 g ai/ha, Preemergence; for pest or weed control at 125 g/ha: 125 g ai/ha, preemergence, visual injury rating, approximately 10 d
Kochia (Kochia scoparia) [2] = assay: Test A preemergence; conditions: Bassia scoparia, pre-emergence, 240 h, 0 to 100 scale where 0 is no effect and 100 is complete control, read-out: Kochia plant response rating; for pest or weed control at 31 g/ha: 31 g ai/ha, Preemergence; for pest or weed control at 125 g/ha: 125 g ai/ha, preemergence, visual injury rating, approximately 10 d
Procedure, shortened: (§1)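 Preemergence directed soil spray on seeded pots, or postemergence application to plants 2–10 cm, one- to two-leaf. Solvent mixture non-phytotoxic, with surfactant. Scored ~10 d later, visually, 0–100 vs untreated.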

[3] = system: barnyardgrass (Echinochloa crus-galli); assay: Test A preemergence; conditions: Echinochloa crus-galli, pre-emergence, 240 h, 0 to 100 scale where 0 is no effect and 100 is complete control, read-out: Barnyardgrass plant response rating; for pest or weed control at 31 g/ha: 31 g ai/ha, Preemergence; for pest or weed control at 125 g/ha: 125 g ai/ha, preemergence, visual injury rating, approximately 10 d
Procedure, shortened: as §1

[4] = system: ryegrass, Italian (Italian ryegrass, Lolium multiflorum); assay: Test A preemergence; conditions: Lolium multiflorum, pre-emergence, 240 h, 0 to 100 scale where 0 is no effect and 100 is complete control, read-out: Ryegrass, Italian plant response rating; for pest or weed control at 31 g/ha: 31 g ai/ha, Preemergence; for pest or weed control at 125 g/ha: 125 g ai/ha, preemergence, visual injury rating, approximately 10 d
Procedure, shortened: as §1

[5] = system: giant foxtail (Setaria faberii); assay: Test A preemergence; conditions: Setaria faberi, pre-emergence, 240 h, 0 to 100 scale where 0 is no effect and 100 is complete control, read-out: Foxtail, Giant plant response rating; for pest or weed control at 31 g/ha: 31 g ai/ha, Preemergence; for pest or weed control at 125 g/ha: 125 g ai/ha, preemergence, visual injury rating, approximately 10 d
Procedure, shortened: as §1

[6] = system: ragweed (common ragweed, Ambrosia elatior); assay: Test A preemergence; conditions: Ambrosia artemisiifolia, pre-emergence, 240 h, 0 to 100 scale where 0 is no effect and 100 is complete control, read-out: Ragweed plant response rating; for pest or weed control at 31 g/ha: 31 g ai/ha, Preemergence; for pest or weed control at 125 g/ha: 125 g ai/ha, preemergence, visual injury rating, approximately 10 d
Procedure, shortened: as §1

rice (Oryra sativa) = assay: Test B flooded paddy test; conditions: Oryza sativa, 250 g ai/ha, Flood; 0 to 100 scale where 0 is no effect and 100 is complete control; read-out: Rice plant response rating
Procedure, shortened: (§2)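 Flooding to 3 cm over soil accompanied treatment, which consisted of adding compound to the standing water around 2-leaf plants; depth was then maintained. Visual assessment versus controls followed at 13 to 15 d (scale 0–100, 0 meaning no effect).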

[7] = system: barnyardgrass (Echinochloa crus-galli); assay: Test B flooded paddy test; conditions: Echinochloa crus-galli, 250 g ai/ha, Flood; 0 to 100 scale where 0 is no effect and 100 is complete control; read-out: Barnyardgrass plant response rating
Procedure, shortened: as §2

[8] = system: ducksalad (Heteranthera limosa); assay: Test B flooded paddy test; conditions: Heteranthera limosa, 250 g ai/ha, Flood; 0 to 100 scale where 0 is no effect and 100 is complete control; read-out: Ducksalad plant response rating
Procedure, shortened: as §2

[9] = system: sedge, umbrella (small-flower umbrella sedge, Cyperus difformis); assay: Test B flooded paddy test; conditions: Cyperus difformis, 250 g ai/ha, Flood; 0 to 100 scale where 0 is no effect and 100 is complete control; read-out: Sedge, Umbrella plant response rating
Procedure, shortened: as §2

[10] = system: pigweed (Amaranthus retroflexus); assay: Test A postemergence; conditions: Amaranthus retroflexus, post-emergence, 240 h, 125 g ai/ha, postemergence, visual injury vs untreated controls after approx. 10 d; 0 = no effect, 100 = complete control; read-out: Pigweed plant response rating (0 to 100 scale)
Procedure, shortened: as §1

Kochia (Kochia scoparia) [11] = assay: Test A postemergence; conditions: Bassia scoparia, post-emergence, 240 h; for pest or weed control at 125 g/ha: 125 g ai/ha, postemergence, visual injury vs untreated controls after approx. 10 d, 0 = no effect, 100 = complete control, read-out: Kochia plant response rating (0 to 100 scale); for pest or weed control at 31 g/ha: Postemergence, 31 g ai/ha, visual injury after approx. 10 d, 0 to 100 scale, 0 no effect, 100 complete control, read-out: Plant response rating, Kochia
Procedure, shortened: as §1

corn (Zea mays) = assay: Test A postemergence; conditions: Zea mays, post-emergence, 240 h; for plant injury at 125 g/ha: 125 g ai/ha, postemergence, visual injury vs untreated controls after approx. 10 d, 0 = no effect, 100 = complete control, read-out: Corn plant response rating (0 to 100 scale); for Corn plant response rating (crop injury, 0 = no effect, 100 = complete kill) at 31 g/ha: Postemergence, 31 g ai/ha, visual injury after approx. 10 d, 0 to 100 scale, 100 complete control
Procedure, shortened: as §1

[12] = system: barnyardgrass (Echinochloa crus-galli); assay: Test A postemergence; conditions: Echinochloa crus-galli, post-emergence, 240 h; for pest or weed control at 125 g/ha: 125 g ai/ha, postemergence, visual injury vs untreated controls after approx. 10 d, 0 = no effect, 100 = complete control, read-out: Barnyardgrass plant response rating (0 to 100 scale); for pest or weed control at 31 g/ha: Postemergence, 31 g ai/ha, visual injury after approx. 10 d, 0 to 100 scale, 0 no effect, 100 complete control, read-out: Plant response rating, Barnyardgrass
Procedure, shortened: as §1

[13] = system: ryegrass, Italian (Italian ryegrass, Lolium multiflorum); assay: Test A postemergence; conditions: Lolium multiflorum, post-emergence, 240 h, 125 g ai/ha, postemergence, visual injury vs untreated controls after approx. 10 d; 0 = no effect, 100 = complete control; read-out: Ryegrass, Italian plant response rating (0 to 100 scale)
Procedure, shortened: as §1

[14] = system: Galium (catchweed bedstraw, Galium aparine); assay: Test A postemergence; conditions: Galium, post-emergence, 240 h; for pest or weed control at 125 g/ha: 125 g ai/ha, postemergence, visual injury vs untreated controls after approx. 10 d, 0 = no effect, 100 = complete control, read-out: Galium plant response rating (0 to 100 scale); for pest or weed control at 31 g/ha: Postemergence, 31 g ai/ha, visual injury after approx. 10 d, 0 to 100 scale, 0 no effect, 100 complete control, read-out: Plant response rating, Galium
Procedure, shortened: as §1

[15] = system: giant foxtail (Setaria faberii); assay: Test A postemergence; conditions: Setaria faberi, post-emergence, 240 h; for pest or weed control at 125 g/ha: 125 g ai/ha, postemergence, visual injury vs untreated controls after approx. 10 d, 0 = no effect, 100 = complete control, read-out: Foxtail, Giant plant response rating (0 to 100 scale); for pest or weed control at 31 g/ha: Postemergence, 31 g ai/ha, visual injury after approx. 10 d, 0 to 100 scale, 0 no effect, 100 complete control, read-out: Plant response rating, Foxtail, Giant
Procedure, shortened: as §1

[16] = system: ragweed (common ragweed, Ambrosia elatior); assay: Test A postemergence; conditions: Ambrosia artemisiifolia, post-emergence, 240 h, 125 g ai/ha, postemergence, visual injury vs untreated controls after approx. 10 d; 0 = no effect, 100 = complete control; read-out: Ragweed plant response rating (0 to 100 scale)
Procedure, shortened: as §1

[17] = system: wheat (Triticum aestivum); assay: Test A postemergence; conditions: Triticum aestivum, post-emergence, 240 h, 125 g ai/ha, postemergence, visual injury vs untreated controls after approx. 10 d; 0 = no effect, 100 = complete control; read-out: Wheat plant response rating (0 to 100 scale)
Procedure, shortened: as §1

[18] = system: blackgrass (Alopecurus myosuroides); assay: Test A postemergence; conditions: Alopecurus myosuroides, post-emergence, 240 h; for pest or weed control at 125 g/ha: 125 g ai/ha, postemergence, visual injury vs untreated controls after approx. 10 d, 0 = no effect, 100 = complete control, read-out: Blackgrass plant response rating (0 to 100 scale); for pest or weed control at 31 g/ha: Postemergence, 31 g ai/ha, visual injury after approx. 10 d, 0 to 100 scale, 0 no effect, 100 complete control, read-out: Plant response rating, Blackgrass
Procedure, shortened: as §1

SMILES | pest or weed control at 31 g/ha [1] | pest or weed control at 125 g/ha [1] | pest or weed control at 31 g/ha (Kochia (Kochia scoparia) [2]) | pest or weed control at 125 g/ha (Kochia (Kochia scoparia) [2]) | pest or weed control at 31 g/ha [3] | pest or weed control at 125 g/ha [3] | pest or weed control at 31 g/ha [4] | pest or weed control at 125 g/ha [4] | pest or weed control at 31 g/ha [5] | pest or weed control at 125 g/ha [5] | pest or weed control at 31 g/ha [6] | pest or weed control at 125 g/ha [6] | pest or weed control at 250 g/ha (rice (Oryra sativa)) | pest or weed control at 250 g/ha [7] | pest or weed control at 250 g/ha [8] | pest or weed control at 250 g/ha [9] | pest or weed control at 125 g/ha [10] | pest or weed control at 125 g/ha (Kochia (Kochia scoparia) [11]) | pest or weed control at 31 g/ha (Kochia (Kochia scoparia) [11]) | plant injury at 125 g/ha (corn (Zea mays)) | further results
Cc1ccc([C@H]2CN(C)C(=O)[C@@H]2C(=O)Nc2cccc(F)c2C)cc1 [Compound 1186] | 30% | 70% | 70% | 80% | 90% | 100% | 20% | 70% | 100% | 100% | 0% | 60% | 30% | 75% | 60% | 0% | 0% | 60% | 20% | 80% | Corn plant response rating (crop injury, 0 = no effect, 100 = complete kill) at 31 g/ha (corn (Zea mays)): 30%; pest or weed control at 125 g/ha [12]: 100%; pest or weed control at 31 g/ha [12]: 100%; pest or weed control at 125 g/ha [13]: 50%; pest or weed control at 125 g/ha [14]: 60%; pest or weed control at 31 g/ha [14]: 50%; pest or weed control at 125 g/ha [15]: 90%; pest or weed control at 31 g/ha [15]: 90%; pest or weed control at 125 g/ha [16]: 70%; plant injury at 125 g/ha [17]: 60%; pest or weed control at 125 g/ha [18]: 80%; pest or weed control at 31 g/ha [18]: 70%
CSc1ccccc1NC(=O)[C@H]1C(=O)N(C)C[C@@H]1c1ccc(C)cc1 [Compound 1187] | 0% | 20% | 50% | 70% | 70% | 100% | 0% | 40% | 90% | 100% | 0% | 50% | 0% | 60% | 85% | 0% | 0% | 20% | 0% | 0% | Corn plant response rating (crop injury, 0 = no effect, 100 = complete kill) at 31 g/ha (corn (Zea mays)): 0%; pest or weed control at 125 g/ha [12]: 100%; pest or weed control at 31 g/ha [12]: 20%; pest or weed control at 125 g/ha [13]: 20%; pest or weed control at 125 g/ha [14]: 50%; pest or weed control at 31 g/ha [14]: 20%; pest or weed control at 125 g/ha [15]: 80%; pest or weed control at 31 g/ha [15]: 40%; pest or weed control at 125 g/ha [16]: 0%; plant injury at 125 g/ha [17]: 20%; pest or weed control at 125 g/ha [18]: 40%; pest or weed control at 31 g/ha [18]: 0%

From US12077503B2, “Substituted cyclic amides and their use as herbicides” (FMC CORPORATION, priority 2015, dated 2024)
